PMC3814616, “BRAF inhibitors suppress apoptosis through off-target inhibition of JNK signaling” (eLife, 2013)

Columns and labels:
phospho-ERK = experiment: Western blot, ERK phosphorylation in SRB1 and NHEK cells; type: cell-based, human; details: 0.6 μM (NHEK) or 1.2 μM (SRB1)
Excerpt: Figure 2. […] DOI: http://dx.doi.org/10.7554/eLife.00969.010 [drawing 5]

phospho-JNK = experiment: Western blot, UV-induced phospho-JNK in cSCC and HaCaT cell lines; type: cell-based, human; details: 0.05 μM, HaCaT and SRB1 cells
[1] = 150 mg PO BID in humans, ref Falchook et al., 2012; cited from earlier work
full length MAP4K5 = target: T1, full length MAP4K5 (Homo sapiens, UniProt Q9Y4K4); experiment: In vitro kinase assay (Reaction Biology); type: biochemical; details: up to 1 μM
T1 construct: and full length MAP4K5 (MBP substrate, ATP 10 μM) (Reaction Biology); purchased Reaction Biology

cSCC in treated patients = details: 150 mg PO BID, ref Falchook et al., 2012, Hauschild et al., Long et al.; cited from earlier work
[2] = tested on: E1A and HRAS^G12V-transformed wild-type (WT) MEFs; experiment: Soft agar colony formation; type: cell-based, mouse; details: 0.05 μM
[3] = tested on: E1A and HRAS^G12V-transformed Craf−/− MEFs; experiment: Soft agar colony formation; type: cell-based, mouse; details: 0.05 μM
A375 melanoma cell line = details: ref Greger et al., 2012; cited from earlier work
SRB1 cells = experiment: UV-induced apoptosis, FACS Annexin V+, TMRE-low; type: cell-based, human; details: 0.05 μM
[4] = target: T2, MKK4 (amino acids 33-end) (Homo sapiens, UniProt P45985); experiment: In vitro kinase assay (Reaction Biology); type: biochemical; details: up to 1 μM
T2 construct: amino acids 33-end MKK4 (JNK1 substrate, ATP 0.1 μM); purchased Reaction Biology

[5] = Serum concentration in humans; type: in vivo, human; details: 150 mg PO BID vs vemurafenib 960 mg PO BID
HaCaT cells = experiment: UV-induced apoptosis, FACS Annexin V+, TMRE-low; type: cell-based, human; details: 0.05 μM
[6] = tested on: A375 and WM35 BRAF^V600E melanoma cell lines; experiment: Growth of BRAF^V600E melanoma cell lines; type: cell-based, human; details: bioequivalent doses: dabrafenib 0.05 μM, PLX4720 1.0 μM
human full-length ZAK = target: T3, human full-length ZAK (Homo sapiens, UniProt Q9NYL2); experiment: In vitro kinase assay (Reaction Biology); type: biochemical
T3 construct: In vitro kinase assays were performed using human full-length ZAK; purchased Reaction Biology

T1 sequence (Q9Y4K4 whole entry): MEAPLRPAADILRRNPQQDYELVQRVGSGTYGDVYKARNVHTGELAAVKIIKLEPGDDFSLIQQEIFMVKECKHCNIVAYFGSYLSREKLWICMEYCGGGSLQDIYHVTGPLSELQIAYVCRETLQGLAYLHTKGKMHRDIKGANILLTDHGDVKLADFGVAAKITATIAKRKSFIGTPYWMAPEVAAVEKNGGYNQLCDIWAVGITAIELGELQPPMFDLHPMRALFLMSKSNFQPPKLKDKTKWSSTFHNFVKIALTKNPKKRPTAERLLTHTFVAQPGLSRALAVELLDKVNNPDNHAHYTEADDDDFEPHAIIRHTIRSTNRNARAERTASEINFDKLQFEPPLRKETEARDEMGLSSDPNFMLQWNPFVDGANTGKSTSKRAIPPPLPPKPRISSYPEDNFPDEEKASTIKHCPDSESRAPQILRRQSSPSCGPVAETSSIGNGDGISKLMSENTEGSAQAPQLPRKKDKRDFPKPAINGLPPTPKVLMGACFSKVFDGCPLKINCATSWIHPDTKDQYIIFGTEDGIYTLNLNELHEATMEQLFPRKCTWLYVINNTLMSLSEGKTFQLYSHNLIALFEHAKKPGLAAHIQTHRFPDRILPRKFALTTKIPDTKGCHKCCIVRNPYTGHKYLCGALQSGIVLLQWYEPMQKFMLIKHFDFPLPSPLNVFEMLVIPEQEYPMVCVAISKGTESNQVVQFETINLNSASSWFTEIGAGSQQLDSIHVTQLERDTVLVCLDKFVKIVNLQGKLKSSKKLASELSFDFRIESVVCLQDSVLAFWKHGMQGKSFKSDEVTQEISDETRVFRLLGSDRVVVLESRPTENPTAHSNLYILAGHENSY
T2 sequence (P45985 33-399 limits assumed): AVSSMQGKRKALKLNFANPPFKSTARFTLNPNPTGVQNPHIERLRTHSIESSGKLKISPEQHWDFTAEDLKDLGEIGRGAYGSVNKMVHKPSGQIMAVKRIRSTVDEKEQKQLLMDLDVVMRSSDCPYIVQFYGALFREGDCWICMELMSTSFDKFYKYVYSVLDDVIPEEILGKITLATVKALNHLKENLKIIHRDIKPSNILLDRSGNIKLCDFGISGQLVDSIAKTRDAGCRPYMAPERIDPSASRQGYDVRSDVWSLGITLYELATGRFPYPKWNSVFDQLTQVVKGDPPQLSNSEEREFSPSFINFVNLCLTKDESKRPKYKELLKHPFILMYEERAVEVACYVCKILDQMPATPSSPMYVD

| SMILES | ERK phosphorylation and activation (phospho-ERK) | UV-induced phospho-JNK induction (phospho-JNK) | peak serum concentrations [1] [µM] | inhibition of MAP4K5 (full length MAP4K5) | overall aggregated cSCC rate (cSCC in treated patients) [%] | colony formation [2] | colony formation [3] | GI50 (A375 melanoma cell line) [µM] | UV-induced apoptosis (SRB1 cells) | inhibition of MKK4 [4] | peak serum concentration, fold lower than mean sustained serum levels of vemurafenib [5] | UV-induced apoptosis (HaCaT cells) | growth of A375 and WM35 cells [6] | IC50 (human full-length ZAK; MBP substrate, ATP 2.5 μM, read-out: biochemical IC50) [µM] | retained activity of ZAK kinase (human full-length ZAK; at 0.01 μM) |
| --- | --- | --- | --- | --- | --- | --- | --- | --- | --- | --- | --- | --- | --- | --- | --- |
| Cn1cnc2c(F)c(Nc3ccc(Br)cc3Cl)c(C(=O)NOCCO)cc21 [AZD6244] | effectively abrogated | – | – | – | – | – | – | – | – | – | – | – | – | – | – |
| CC(C)(C)c1nc(-c2cccc(NS(=O)(=O)c3c(F)cccc3F)c2F)c(-c2ccnc(N)n2)s1 [dabrafenib] | – | fails to suppress | 1.55 | no significant inhibition | 6.1 | significant growth advantage | fails to confer a significant growth advantage | < 0.01 | fails to suppress | no significant inhibition | over 50 fold | fails to suppress | suppress the growth | 0.0289 ± 0.00223 | over 64% |
